Test results: ChEMBL document CHEMBL3991601, “The target landscape of clinical kinase drugs” (Science, 2017)
The source made the active and inactive calls.

Tests used:
[1] = target: Dual specificity protein kinase CLK2 (Homo sapiens, UniProt P49760)
[2] = target: Focal adhesion kinase 1 (Homo sapiens, UniProt Q05397)
[3] = target: T1, Calcium/calmodulin-dependent protein kinase type IV (Homo sapiens, UniProt Q16566)
T1 sequence (Q16566 whole entry): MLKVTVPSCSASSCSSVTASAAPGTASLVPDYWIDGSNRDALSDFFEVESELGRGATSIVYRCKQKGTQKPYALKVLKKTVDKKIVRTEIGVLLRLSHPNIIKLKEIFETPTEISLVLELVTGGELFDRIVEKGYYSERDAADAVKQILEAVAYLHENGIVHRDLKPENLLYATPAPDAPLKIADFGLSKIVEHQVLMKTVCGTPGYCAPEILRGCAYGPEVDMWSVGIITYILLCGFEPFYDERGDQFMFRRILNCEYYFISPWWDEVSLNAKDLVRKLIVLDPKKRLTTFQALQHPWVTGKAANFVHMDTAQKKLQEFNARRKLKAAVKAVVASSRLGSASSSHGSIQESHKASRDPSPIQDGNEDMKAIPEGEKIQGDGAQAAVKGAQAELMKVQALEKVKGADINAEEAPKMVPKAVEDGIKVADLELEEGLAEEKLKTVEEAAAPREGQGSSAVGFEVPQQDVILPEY

[4] = target: Dual specificity testis-specific protein kinase 2 (Homo sapiens, UniProt Q96S53)
[5] = target: G protein-coupled receptor kinase 6 (Homo sapiens, UniProt P43250)
[6] = target: Mitogen-activated protein kinase 14 (Homo sapiens, UniProt Q16539)
[7] = target: Protein kinase C theta type (Homo sapiens, UniProt Q04759)
[8] = target: Myosin-10 (Homo sapiens, UniProt P35580)
[9] = target: Dual specificity protein kinase CLK1 (Homo sapiens, UniProt P49759)
[10] = target: T2, Dual specificity mitogen-activated protein kinase kinase 5 (Homo sapiens, UniProt Q13163)
T2 sequence (Q13163 whole entry): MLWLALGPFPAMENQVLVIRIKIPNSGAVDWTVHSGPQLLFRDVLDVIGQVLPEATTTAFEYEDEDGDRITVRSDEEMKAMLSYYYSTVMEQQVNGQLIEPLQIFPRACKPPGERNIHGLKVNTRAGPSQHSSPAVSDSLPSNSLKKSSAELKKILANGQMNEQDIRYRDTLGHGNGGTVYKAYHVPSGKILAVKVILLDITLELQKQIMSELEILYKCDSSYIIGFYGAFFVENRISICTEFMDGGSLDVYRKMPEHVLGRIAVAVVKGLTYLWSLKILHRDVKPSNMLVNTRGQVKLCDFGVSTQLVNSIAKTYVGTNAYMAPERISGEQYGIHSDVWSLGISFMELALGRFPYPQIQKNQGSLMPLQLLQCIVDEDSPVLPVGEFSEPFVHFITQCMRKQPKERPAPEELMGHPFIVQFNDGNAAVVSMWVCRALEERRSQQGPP

[11] = target: Dual specificity testis-specific protein kinase 1 (Homo sapiens, UniProt Q15569)
[12] = target: T3, Peroxisomal acyl-coenzyme A oxidase 1 (Homo sapiens, UniProt Q15067)
T3 sequence (Q15067 whole entry): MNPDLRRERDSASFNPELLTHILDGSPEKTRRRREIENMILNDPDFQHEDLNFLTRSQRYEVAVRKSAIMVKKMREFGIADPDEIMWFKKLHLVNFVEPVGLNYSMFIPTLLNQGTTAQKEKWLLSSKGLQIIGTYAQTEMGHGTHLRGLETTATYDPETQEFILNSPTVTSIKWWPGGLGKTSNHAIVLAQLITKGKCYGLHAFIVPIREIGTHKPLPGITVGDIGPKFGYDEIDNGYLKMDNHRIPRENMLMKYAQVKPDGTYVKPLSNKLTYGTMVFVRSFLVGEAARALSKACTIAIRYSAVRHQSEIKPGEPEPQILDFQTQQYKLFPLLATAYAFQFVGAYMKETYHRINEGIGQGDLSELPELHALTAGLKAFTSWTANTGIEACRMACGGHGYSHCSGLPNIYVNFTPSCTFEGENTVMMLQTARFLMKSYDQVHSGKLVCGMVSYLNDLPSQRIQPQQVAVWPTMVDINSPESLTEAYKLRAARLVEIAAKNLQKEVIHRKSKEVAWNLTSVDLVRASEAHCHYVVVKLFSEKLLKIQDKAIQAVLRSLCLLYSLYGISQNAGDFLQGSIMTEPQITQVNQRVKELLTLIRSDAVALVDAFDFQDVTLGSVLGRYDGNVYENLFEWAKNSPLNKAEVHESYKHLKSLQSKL

[13] = target: Tyrosine-protein kinase Lck (Homo sapiens, UniProt P06239)
[14] = target: Uncharacterized aarF domain-containing protein kinase 5 (Homo sapiens, UniProt Q3MIX3)
[15] = target: T4, Serine/threonine-protein kinase NLK (Homo sapiens, UniProt Q9UBE8)
T4 sequence (Q9UBE8 whole entry): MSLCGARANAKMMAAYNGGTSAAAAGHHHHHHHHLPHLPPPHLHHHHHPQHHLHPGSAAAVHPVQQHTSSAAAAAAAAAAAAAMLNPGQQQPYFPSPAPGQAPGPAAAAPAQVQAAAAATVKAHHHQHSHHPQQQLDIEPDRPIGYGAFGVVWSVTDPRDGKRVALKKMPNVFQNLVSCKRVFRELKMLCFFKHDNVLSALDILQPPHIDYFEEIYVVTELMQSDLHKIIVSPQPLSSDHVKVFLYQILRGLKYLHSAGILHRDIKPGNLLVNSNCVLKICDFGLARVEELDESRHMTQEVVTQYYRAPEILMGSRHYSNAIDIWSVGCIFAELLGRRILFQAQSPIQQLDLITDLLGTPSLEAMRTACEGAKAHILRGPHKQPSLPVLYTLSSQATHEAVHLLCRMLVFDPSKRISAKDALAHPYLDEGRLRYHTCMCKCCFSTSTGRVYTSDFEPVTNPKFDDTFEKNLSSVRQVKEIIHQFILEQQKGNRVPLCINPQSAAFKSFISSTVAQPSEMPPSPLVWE

[16] = target: Dual specificity protein kinase CLK3 (Homo sapiens, UniProt P49761); assay type: subcellular, K-562, COLO 205, SK-N-BE(2) and MV-4-11, Cell lysate; details: read-out: Kd apparent
[17] = target: MAP kinase-activated protein kinase 3 (Homo sapiens, UniProt Q16644)
Note: in the data inactive means no Kd found up to 30 µM.

Dual specificity testis-specific protein kinase 2, sequence (Q96S53 whole entry): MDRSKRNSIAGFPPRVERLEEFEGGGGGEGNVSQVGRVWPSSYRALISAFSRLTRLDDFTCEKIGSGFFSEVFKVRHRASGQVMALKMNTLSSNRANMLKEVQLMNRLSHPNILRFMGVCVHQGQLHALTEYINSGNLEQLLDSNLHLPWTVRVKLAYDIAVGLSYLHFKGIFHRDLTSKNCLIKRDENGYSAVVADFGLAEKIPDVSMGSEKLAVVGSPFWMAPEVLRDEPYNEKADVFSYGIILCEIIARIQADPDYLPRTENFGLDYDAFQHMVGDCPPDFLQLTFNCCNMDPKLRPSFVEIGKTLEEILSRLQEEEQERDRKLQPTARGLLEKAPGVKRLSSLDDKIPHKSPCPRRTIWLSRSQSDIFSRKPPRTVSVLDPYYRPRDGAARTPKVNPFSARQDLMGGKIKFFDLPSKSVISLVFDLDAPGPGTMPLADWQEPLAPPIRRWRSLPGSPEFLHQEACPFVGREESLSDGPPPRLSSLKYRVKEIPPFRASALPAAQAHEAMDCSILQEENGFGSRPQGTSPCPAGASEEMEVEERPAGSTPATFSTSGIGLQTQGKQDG
G protein-coupled receptor kinase 6, sequence (P43250 whole entry): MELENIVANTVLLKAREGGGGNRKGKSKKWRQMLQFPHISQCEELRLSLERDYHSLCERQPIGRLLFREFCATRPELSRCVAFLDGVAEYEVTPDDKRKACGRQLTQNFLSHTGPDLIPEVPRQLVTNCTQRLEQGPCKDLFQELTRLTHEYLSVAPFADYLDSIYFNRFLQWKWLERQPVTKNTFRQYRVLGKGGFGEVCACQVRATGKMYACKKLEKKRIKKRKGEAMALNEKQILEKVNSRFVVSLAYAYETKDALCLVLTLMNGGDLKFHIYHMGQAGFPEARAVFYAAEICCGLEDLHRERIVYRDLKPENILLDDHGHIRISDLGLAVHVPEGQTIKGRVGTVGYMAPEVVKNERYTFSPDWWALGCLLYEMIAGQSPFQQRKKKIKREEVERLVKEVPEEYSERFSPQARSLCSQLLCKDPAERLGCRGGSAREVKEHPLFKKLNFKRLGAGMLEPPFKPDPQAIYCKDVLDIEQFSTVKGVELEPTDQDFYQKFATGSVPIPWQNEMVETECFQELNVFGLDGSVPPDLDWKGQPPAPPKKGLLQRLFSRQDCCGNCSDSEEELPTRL
Dual specificity testis-specific protein kinase 1, sequence (Q15569 whole entry): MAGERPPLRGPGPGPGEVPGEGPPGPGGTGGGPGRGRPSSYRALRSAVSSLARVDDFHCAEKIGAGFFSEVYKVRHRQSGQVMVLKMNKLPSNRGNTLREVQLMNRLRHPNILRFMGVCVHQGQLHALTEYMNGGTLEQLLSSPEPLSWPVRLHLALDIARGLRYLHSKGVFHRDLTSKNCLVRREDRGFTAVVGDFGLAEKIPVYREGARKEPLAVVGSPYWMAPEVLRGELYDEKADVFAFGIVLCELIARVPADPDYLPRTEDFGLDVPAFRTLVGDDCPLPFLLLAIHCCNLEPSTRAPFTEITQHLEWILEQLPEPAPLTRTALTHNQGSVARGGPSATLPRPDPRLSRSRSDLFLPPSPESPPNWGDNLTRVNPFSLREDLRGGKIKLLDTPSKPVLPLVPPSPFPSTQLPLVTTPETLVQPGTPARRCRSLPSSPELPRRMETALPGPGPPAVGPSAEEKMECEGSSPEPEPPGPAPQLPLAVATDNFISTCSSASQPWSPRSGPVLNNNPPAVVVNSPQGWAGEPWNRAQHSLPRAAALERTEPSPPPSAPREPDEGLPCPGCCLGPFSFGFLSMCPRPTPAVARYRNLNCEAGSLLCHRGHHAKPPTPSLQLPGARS
Dual specificity protein kinase CLK1, sequence (P49759 whole entry): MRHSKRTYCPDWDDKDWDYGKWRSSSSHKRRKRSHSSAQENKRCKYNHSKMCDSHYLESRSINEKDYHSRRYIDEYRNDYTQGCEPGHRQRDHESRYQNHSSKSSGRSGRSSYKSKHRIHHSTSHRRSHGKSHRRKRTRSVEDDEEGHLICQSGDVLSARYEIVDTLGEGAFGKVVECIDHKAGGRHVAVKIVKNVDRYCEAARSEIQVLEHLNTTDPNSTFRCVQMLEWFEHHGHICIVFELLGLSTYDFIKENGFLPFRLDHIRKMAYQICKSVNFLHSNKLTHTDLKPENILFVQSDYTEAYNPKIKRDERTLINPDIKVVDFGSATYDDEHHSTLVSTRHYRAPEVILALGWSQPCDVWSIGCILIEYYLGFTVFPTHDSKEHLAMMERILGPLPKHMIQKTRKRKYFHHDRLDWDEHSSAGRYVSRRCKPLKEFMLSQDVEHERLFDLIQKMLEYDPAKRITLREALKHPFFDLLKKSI
Tyrosine-protein kinase Lck, sequence (P06239 whole entry, the tested form may be a part): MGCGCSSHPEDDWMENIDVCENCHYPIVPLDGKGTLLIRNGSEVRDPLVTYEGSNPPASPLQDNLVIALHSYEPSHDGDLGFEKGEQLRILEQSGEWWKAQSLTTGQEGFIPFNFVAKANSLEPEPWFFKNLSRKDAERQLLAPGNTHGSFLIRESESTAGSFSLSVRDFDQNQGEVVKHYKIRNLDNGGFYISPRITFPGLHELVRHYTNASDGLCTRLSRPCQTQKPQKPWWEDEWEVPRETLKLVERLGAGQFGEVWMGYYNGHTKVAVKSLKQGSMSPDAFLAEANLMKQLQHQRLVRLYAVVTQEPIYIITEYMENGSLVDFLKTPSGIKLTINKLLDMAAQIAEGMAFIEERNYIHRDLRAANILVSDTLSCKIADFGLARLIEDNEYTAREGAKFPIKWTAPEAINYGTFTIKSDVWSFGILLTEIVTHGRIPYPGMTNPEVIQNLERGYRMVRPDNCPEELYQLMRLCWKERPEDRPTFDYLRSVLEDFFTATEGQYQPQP
Focal adhesion kinase 1, sequence (Q05397 whole entry): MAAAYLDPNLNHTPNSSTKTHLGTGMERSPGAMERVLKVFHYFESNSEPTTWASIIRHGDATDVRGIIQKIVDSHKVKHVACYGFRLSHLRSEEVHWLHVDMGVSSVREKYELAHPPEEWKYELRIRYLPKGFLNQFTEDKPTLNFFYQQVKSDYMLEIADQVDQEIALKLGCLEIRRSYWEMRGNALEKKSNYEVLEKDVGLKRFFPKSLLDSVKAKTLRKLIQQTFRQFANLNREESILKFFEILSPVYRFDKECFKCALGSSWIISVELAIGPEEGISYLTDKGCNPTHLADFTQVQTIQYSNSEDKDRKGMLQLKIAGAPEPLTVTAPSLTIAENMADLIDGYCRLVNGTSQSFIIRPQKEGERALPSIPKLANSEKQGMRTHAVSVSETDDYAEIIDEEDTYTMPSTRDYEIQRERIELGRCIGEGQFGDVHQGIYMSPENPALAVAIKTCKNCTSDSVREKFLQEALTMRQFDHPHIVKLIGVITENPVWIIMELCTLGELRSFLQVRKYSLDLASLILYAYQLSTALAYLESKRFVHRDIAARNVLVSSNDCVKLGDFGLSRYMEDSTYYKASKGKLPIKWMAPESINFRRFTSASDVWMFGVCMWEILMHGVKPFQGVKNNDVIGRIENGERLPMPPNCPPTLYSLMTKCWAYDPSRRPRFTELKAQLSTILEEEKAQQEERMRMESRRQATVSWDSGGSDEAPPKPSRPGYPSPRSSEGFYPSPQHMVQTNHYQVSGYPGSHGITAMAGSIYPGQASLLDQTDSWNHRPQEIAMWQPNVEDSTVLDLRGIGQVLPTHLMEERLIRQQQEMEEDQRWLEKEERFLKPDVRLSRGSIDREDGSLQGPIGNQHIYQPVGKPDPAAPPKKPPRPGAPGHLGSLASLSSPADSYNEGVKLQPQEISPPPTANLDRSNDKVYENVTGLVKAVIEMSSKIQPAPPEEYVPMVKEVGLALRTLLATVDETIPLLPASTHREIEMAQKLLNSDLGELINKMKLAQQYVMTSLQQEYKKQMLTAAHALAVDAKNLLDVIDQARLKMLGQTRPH
Dual specificity protein kinase CLK2, sequence (P49760 whole entry): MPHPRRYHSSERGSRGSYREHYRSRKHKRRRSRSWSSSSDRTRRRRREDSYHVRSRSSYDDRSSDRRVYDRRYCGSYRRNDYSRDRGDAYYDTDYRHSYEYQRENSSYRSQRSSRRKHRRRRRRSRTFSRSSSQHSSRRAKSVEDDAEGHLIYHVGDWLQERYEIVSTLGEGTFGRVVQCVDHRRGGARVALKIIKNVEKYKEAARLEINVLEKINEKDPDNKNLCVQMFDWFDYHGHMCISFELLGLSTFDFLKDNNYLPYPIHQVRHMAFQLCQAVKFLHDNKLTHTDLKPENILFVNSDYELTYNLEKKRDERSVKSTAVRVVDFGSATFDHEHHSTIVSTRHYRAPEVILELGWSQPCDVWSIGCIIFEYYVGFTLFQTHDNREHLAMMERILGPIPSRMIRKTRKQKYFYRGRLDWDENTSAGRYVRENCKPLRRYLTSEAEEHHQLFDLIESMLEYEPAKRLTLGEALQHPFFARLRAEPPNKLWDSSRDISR
Protein kinase C theta type, sequence (Q04759 whole entry): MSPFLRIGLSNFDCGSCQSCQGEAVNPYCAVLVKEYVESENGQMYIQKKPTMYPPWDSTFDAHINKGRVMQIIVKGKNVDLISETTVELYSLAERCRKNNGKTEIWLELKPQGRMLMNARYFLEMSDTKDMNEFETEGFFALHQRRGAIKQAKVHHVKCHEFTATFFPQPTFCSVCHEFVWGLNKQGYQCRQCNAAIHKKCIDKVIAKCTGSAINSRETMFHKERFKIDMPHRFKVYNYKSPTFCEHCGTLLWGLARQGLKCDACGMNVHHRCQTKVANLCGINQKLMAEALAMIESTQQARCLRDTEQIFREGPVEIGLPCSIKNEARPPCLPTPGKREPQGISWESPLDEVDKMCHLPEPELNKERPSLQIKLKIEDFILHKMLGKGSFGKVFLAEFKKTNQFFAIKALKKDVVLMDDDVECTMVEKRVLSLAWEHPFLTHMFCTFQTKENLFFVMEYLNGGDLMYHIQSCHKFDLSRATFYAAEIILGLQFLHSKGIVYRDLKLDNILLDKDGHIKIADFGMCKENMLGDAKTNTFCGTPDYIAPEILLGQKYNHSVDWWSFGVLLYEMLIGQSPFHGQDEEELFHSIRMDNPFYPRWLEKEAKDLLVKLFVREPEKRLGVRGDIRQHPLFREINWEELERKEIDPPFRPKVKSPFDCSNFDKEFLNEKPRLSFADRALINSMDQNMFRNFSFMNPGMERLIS

Kd [1] | Kd [7] | Kd [10] | Kd [12] | Kd [13] | Kd [17] | Structure (SMILES) | Kd [2] | Kd [3] | Kd [4] | Kd [5] | Kd [6] | Kd [8] | Kd [9] | Kd [11] | Kd [14] | Kd [15] | Kd [16]
> 30 µM (inactive) | > 30 µM (inactive) | > 30 µM (inactive) | > 30 µM (inactive) | > 30 µM (inactive) | – | O=C(Nc1ccc(OC(F)(F)F)cc1)c1sccc1NCc1ccnc2ccccc12 [OSI-930] | > 30 µM (inactive) | > 30 µM (inactive) | > 30 µM (inactive) | > 30 µM (inactive) | > 30 µM (inactive) | > 30 µM (inactive) | > 30 µM (inactive) | > 30 µM (inactive) | > 30 µM (inactive) | > 30 µM (inactive) | > 30 µM (inactive)
> 30 µM (inactive) | > 30 µM (inactive) | > 30 µM (inactive) | > 30 µM (inactive) | > 30 µM (inactive) | > 30 µM (inactive) | S=C(NCc1ccc2c(c1)OCO2)N1CCN(c2ncnc3c2oc2ccccc23)CC1 [AMUVATINIB] | > 30 µM (inactive) | – | – | > 30 µM (inactive) | > 30 µM (inactive) | > 30 µM (inactive) | > 30 µM (inactive) | – | – | > 30 µM (inactive) | –
> 30 µM (inactive) | > 30 µM (inactive) | > 30 µM (inactive) | > 30 µM (inactive) | – | – | O=S(=O)(c1cccc2c(O)nccc12)N1CCCNCC1 [HYDROXYFASUDIL] | – | > 30 µM (inactive) | – | > 30 µM (inactive) | – | > 30 µM (inactive) | 24.1 µM (active) | – | > 30 µM (inactive) | > 30 µM (inactive) | > 30 µM (inactive)
> 30 µM (inactive) | > 30 µM (inactive) | > 30 µM (inactive) | > 30 µM (inactive) | > 30 µM (inactive) | > 30 µM (inactive) | NC(=O)c1ccc(N(C(N)=O)c2c(F)cccc2F)nc1-c1ccc(F)cc1F [VX-702] | > 30 µM (inactive) | > 30 µM (inactive) | > 30 µM (inactive) | – | – | – | > 30 µM (inactive) | > 30 µM (inactive) | – | – | –

Structure (SMILES) | Kd [1] | Kd [7] | Kd [10] | Kd [12] | Kd [13] | Kd [17] | Kd [2] | Kd [3] | Kd [4] | Kd [5] | Kd [6] | Kd [8] | Kd [9] | Kd [11] | Kd [14] | Kd [15] | Kd [16]
CC1(COc2ccc3c(c2)ncn3-c2ccc3cccc(N4CCC(N)CC4)c3n2)COC1 [CRENOLANIB] | – | – | – | > 30 µM (inactive) | – | – | > 30 µM (inactive) | > 30 µM (inactive) | > 30 µM (inactive) | > 30 µM (inactive) | > 30 µM (inactive) | > 30 µM (inactive) | > 30 µM (inactive) | > 30 µM (inactive) | > 30 µM (inactive) | > 30 µM (inactive) | > 30 µM (inactive)
O=S(=O)(c1cccc2cnccc12)N1CCCNCC1 [FASUDIL] | – | – | > 30 µM (inactive) | > 30 µM (inactive) | – | – | – | > 30 µM (inactive) | > 30 µM (inactive) | > 30 µM (inactive) | – | > 30 µM (inactive) | 0.152 µM | > 30 µM (inactive) | > 30 µM (inactive) | > 30 µM (inactive) | > 30 µM (inactive)
Cn1cc(-c2[nH]c3cc(NC(=O)[C@H](N)C4CCCCC4)cc4c3c2C=NNC4=O)cn1 | > 30 µM (inactive) | > 30 µM (inactive) | 2.19 µM (active) | > 30 µM (inactive) | 1.38 µM (active) | – | > 30 µM (inactive) | > 30 µM (inactive) | > 30 µM (inactive) | > 30 µM (inactive) | > 30 µM (inactive) | > 30 µM (inactive) | > 30 µM (inactive) | > 30 µM (inactive) | > 30 µM (inactive) | > 30 µM (inactive) | > 30 µM (inactive)
CN1CCN(c2nc(C3=C(c4c[nH]c5ccccc45)C(=O)NC3=O)c3ccccc3n2)CC1 [SOTRASTAURIN] | 0.121 µM | 0.013 µM (active) | > 30 µM (inactive) | – | > 30 µM (inactive) | – | > 30 µM (inactive) | > 30 µM (inactive) | – | > 30 µM (inactive) | > 30 µM (inactive) | – | > 30 µM (inactive) | > 30 µM (inactive) | > 30 µM (inactive) | > 30 µM (inactive) | > 30 µM (inactive)
